Laboratory results taken from US20160051560A1, “TREATMENTS INVOLVING ESLICARBAZEPINE OR ESLICARBAZEPINE ACETATE” (BIAL - PORTELA & Cª, S.A., priority 2013, published 2016).

System: patients with bipolar I disorder who responded to treatment in the acute phase studies
Assay: Study BIA-2093-205: recurrence prevention study (2-week open-label Part I, double-blind fixed dose Part II)
Assay type: in vivo, human
Conditions: for Patient worsening status according to CGI-BP Scale: No worsening / Patient worsening status according to CGI-BP Scale: Worsening: Part II; for Patient worsening status according to CGI-BP Scale: No worsening / Patient worsening status according to CGI-BP Scale: Worsening / median time to withdrawal / patients who withdrew / proportion of patients with MADRS scores ≧18 (depressive symptomatology) / proportion of patients with YMRS scores ≧15 (manic symptomatology) / mean (SD) highest mood scores (patient e-diary, 100-point visual analogue scale) / mean (SD) overall lowest mood scores (patient e-diary, 100-point visual analogue scale): ITT; for mean (SD) highest mood scores (patient e-diary, 100-point visual analogue scale) / mean (SD) overall lowest mood scores (patient e-diary, 100-point visual analogue scale) / patients who withdrew (AE section; withdrawing because of AEs): double-blind period
Description: Part I followed an open-label design in which all participants received treatment with ESL 900 mg QD for 2 weeks. Part II followed a double-blind, parallel-group, fixed multiple dose design in which participants were randomly assigned (1:1:1) to one of the following treatment groups: (1) ESL 1800 mg QD, (2) ESL 900 mg QD, and (3) ESL 300 mg QD. […] The occurrence of a new manic/depressive episode was considered a treatment failure, and the patient was discontinued from the study.
If the patient had—in change from preceding phase scale—a score of 5, 6, or 7 in any of 3 categories (mania, depression, or overall bipolar disorder), the illness was considered to have worsened. Secondary efficacy variables included: proportion of patients developing manic symptomatology (YMRS score ≧15); proportion of patients developing depressive symptomatology (MADRS score ≧18); the highest and lowest mood state, collected in the patient diary card; and time to withdrawal. All efficacy assessments were evaluated at each study visit.
Mood was self-evaluated in a 100-point visual analogue scale using the DiaryPRO™ software (Invivodata®, Inc.) implemented on a touch-screen device (Palm™ OS). Patients completed their training in the e-diary use in V1 and were assisted by the study staff when necessary. Data were collected and transferred from the patient's home to the study server on a daily basis.
Medical history and demographic information was obtained at the screening visit. A complete physical and neurological examination was performed at screening, V7 or early discontinuation (EDV), V8 and post-study visit (PSV). Vital signs (pulse rate and blood pressure) were determined at every visit. […] Clinically significant abnormalities in laboratory tests, vital signs or 12-lead ECG were considered as AEs.
Safety was evaluated based on the occurrence of AEs. AEs were documented by the investigator with reference to intensity, dates of occurrence and resolution, outcome and relation to the treatment (causality). Furthermore, each AE was classified as being serious or non-serious. All patients with AEs were followed until their resolution. AEs were coded according to the Medical Dictionary for Regulatory Activities (MedDRA).
Proportions of patients were compared between treatment groups using a Cochran-Mantel-Haenszel (CMH) test stratified by region. […] In all analyses, if the treatment effect was significant (p<0.05) pairwise comparisons were to be performed to assess the differences.
Changes in total YMRS, CGI-BP and MADRS scores were tested by analysis of covariance (ANCOVA) using baseline score value, region, treatment and region-by-treatment interaction as covariates; Dunnett's multiple comparison procedure was used for the comparison of the treatment means. ANCOVA was used to evaluate the change in YMRS score from baseline to the end of the 3-week treatment period, the CGI-BP score at the end of the 3-week treatment period, the MADRS score at the end of the 3-week treatment period, and the highest and lowest mood states (the mean highest and lowest score for each patient was calculated for intervals of 28 calendar days).
Survival analysis was performed using log-rank test/Kaplan-Meier and Cox proportional hazards model.

[1] = Part II Double-Blind Period, ESL 300 mg, n = 35
[2] = Part II Double-Blind Period, ESL 900 mg, n = 26
[3] = Part II Double-Blind Period, ESL 1800 mg, n = 26

Structure (SMILES): CC(=O)O[C@H]1Cc2ccccc2N(C(N)=O)c2ccccc21 [ESL, (S)-10-acetoxy-10,11-dihydro-5H-dibenz[b,f]azepine-5-carboxamide]
- Patient worsening status according to CGI-BP Scale: No worsening (ESL 300 mg QD, n = 34): 26 (76.5) n (%)
- Patient worsening status according to CGI-BP Scale: Worsening (ESL 300 mg QD, n = 34): 6 (17.6) n (%)
- serious AE: mania (ESL 300 mg group): 2 cases
- proportion of patients who prematurely discontinued (ESL 300 mg group (n=19)): 54.3%
- median time to withdrawal (ESL 300 mg group): 254 days
- patients who withdrew (ESL 300 mg group): 52.9%
- proportion of patients with MADRS scores ≧18 (depressive symptomatology) (ESL 300 mg): 14.7%
- proportion of patients with YMRS scores ≧15 (manic symptomatology) (ESL 300 mg): 8.8%
- mean (SD) highest mood scores (patient e-diary, 100-point visual analogue scale) (ESL 300 mg): 49.2 (11.0)
- mean (SD) overall lowest mood scores (patient e-diary, 100-point visual analogue scale) (ESL 300 mg): 45.9 (10.4)
- Patient worsening status according to CGI-BP Scale: No worsening (ESL 900 mg QD, n = 25): 14 (56.0) n (%)
- Patient worsening status according to CGI-BP Scale: Worsening (ESL 900 mg QD, n = 25): 10 (40.0) n (%)
- serious AE: anaemia (ESL 900 mg group): 1 case
- serious AE: disease progression (ESL 900 mg group): 1 case
- serious AE: oesophageal stenosis (ESL 900 mg group): 1 case
- serious AE: pneumonia (ESL 900 mg group): 1 case
- proportion of patients who prematurely discontinued (ESL 900 mg group (n=14)): 53.8%
- median time to withdrawal (ESL 900 mg group): 295 days
- patients who withdrew (ESL 900 mg group): 52.0%
- proportion of patients with MADRS scores ≧18 (depressive symptomatology) (ESL 900 mg): 0.0%
- proportion of patients with YMRS scores ≧15 (manic symptomatology) (ESL 900 mg): 16.0%
- mean (SD) highest mood scores (patient e-diary, 100-point visual analogue scale) (ESL 900 mg): 50.6 (6.4)
- mean (SD) overall lowest mood scores (patient e-diary, 100-point visual analogue scale) (ESL 900 mg): 47.3 (12.4)
- Patient worsening status according to CGI-BP Scale: No worsening (ESL 1800 mg QD, n = 26): 16 (61.5) n (%)
- Patient worsening status according to CGI-BP Scale: Worsening (ESL 1800 mg QD, n = 26): 6 (23.1) n (%)
- serious AE: bronchitis (ESL 1800 mg group): 1 case
- serious AE: depression (ESL 1800 mg group): 1 case
- serious AE: disease progression (ESL 1800 mg group): 1 case
- proportion of patients who prematurely discontinued (ESL 1800 mg group (n=19)): 73.1%
- median time to withdrawal (ESL 1800 mg group): 109 days
- patients who withdrew (ESL 1800 mg group): 73.1%
- proportion of patients with MADRS scores ≧18 (depressive symptomatology) (ESL 1800 mg): 11.5%
- proportion of patients with YMRS scores ≧15 (manic symptomatology) (ESL 1800 mg): 19.2%
- mean (SD) highest mood scores (patient e-diary, 100-point visual analogue scale) (ESL 1800 mg): 55.1 (10.4)
- mean (SD) overall lowest mood scores (patient e-diary, 100-point visual analogue scale) (ESL 1800 mg): 51.1 (12.3)
- patients who showed no worsening according to the CGI-BP scale (ITT population, all treatment groups (300, 900, 1800 mg), no significant dose difference (p=0.250)): at least 50%
- Any Adverse Events (Part I Open-Label Period, ESL 900 mg, n = 104): 20 (19.2) Number (%) of patients
- Agitation [1]: 2 (5.7) Number (%) of patients
- Any Adverse Events [1]: 14 (40.0) Number (%) of patients
- Aspartate amino-transferase increased [1]: 0 (0.0) Number (%) of patients
- Blood creatine phosphokinase increased [1]: 1 (2.9) Number (%) of patients
- Bronchitis [1]: 0 (0.0) Number (%) of patients
- Depression [1]: 3 (8.6) Number (%) of patients
- Dizziness [1]: 0 (0.0) Number (%) of patients
- Mania [1]: 2 (5.7) Number (%) of patients
- Nausea [1]: 0 (0.0) Number (%) of patients
- Sinus tachycardia [1]: 2 (5.7) Number (%) of patients
- Agitation [2]: 0 (0.0) Number (%) of patients
- Any Adverse Events [2]: 14 (53.8) Number (%) of patients
- Aspartate amino-transferase increased [2]: 0 (0.0) Number (%) of patients
- Blood creatine phosphokinase increased [2]: 0 (0.0) Number (%) of patients
- Bronchitis [2]: 1 (3.8) Number (%) of patients
- Depression [2]: 3 (11.5) Number (%) of patients
- Dizziness [2]: 0 (0.0) Number (%) of patients
- Mania [2]: 0 (0.0) Number (%) of patients
- Nausea [2]: 0 (0.0) Number (%) of patients
- Sinus tachycardia [2]: 1 (3.8) Number (%) of patients
- Agitation [3]: 1 (3.8) Number (%) of patients
- Any Adverse Events [3]: 18 (69.2) Number (%) of patients
- Aspartate amino-transferase increased [3]: 2 (7.7) Number (%) of patients
- Blood creatine phosphokinase increased [3]: 3 (11.5) Number (%) of patients
- Bronchitis [3]: 2 (7.7) Number (%) of patients
- Depression [3]: 1 (3.8) Number (%) of patients
- Dizziness [3]: 3 (11.5) Number (%) of patients
- Mania [3]: 0 (0.0) Number (%) of patients
- Nausea [3]: 3 (11.5) Number (%) of patients
- Sinus tachycardia [3]: 0 (0.0) Number (%) of patients
- deaths (all treatment groups): No deaths occurred
- patients who withdrew (AE section; withdrawing because of AEs) (ESL 300 mg group (n=3)): 8.6%
- patients who withdrew (AE section; withdrawing because of AEs) (ESL 900 mg group (n=3)): 11.5%
- patients who withdrew (AE section; withdrawing because of AEs) (ESL 1800 mg group (n=1)): 3.8%
- patients with AEs (open-label period, ESL 900 mg QD (20 patients)): 19.2%
- number of AEs reported (open-label period, ESL 900 mg QD, in 20 patients): 42 AEs
- premature discontinuation because of treatment failure (overall (n=22), similar proportions between treatment groups): 21.2%
- patients completed 6 months of treatment (overall, of 104 patients enrolled in Part I (n=35)): 33.7%
- incidence of treatment-related AEs (recurrence prevention study, comparable between treatment groups): < 25 % of patient
